From ChEMBL document CHEMBL4043168, “The design and SAR of a novel series of 2-aminopyridine based LRRK2 inhibitors” (Bioorg Med Chem Lett, 2017)

How the values were obtained:
[1] = target: Mitogen-activated protein kinase kinase kinase 15 (Homo sapiens) (UniProt Q6ZN16); test: Inhibition of MAP3K15 conserved Lys1 (IAIKEIPER) in human PBMC at 0.1 uM
[2] = Intrinsic clearance in rat liver microsomes; format: ADME, microsome; conditions: read-out: CLH (converted)
[3] = target: Serine/threonine-protein kinase Chk2 (Homo sapiens) (UniProt O96017); test: Inhibition of CHK2 labeling at conserved Lys2 (DLKPENVLLSSQEEDCLIK) in human PBMC at 1 uM
[4] = target: Phosphatidylinositol 3-kinase catalytic subunit type 3 (Homo sapiens) (UniProt Q8NEB9); test: Inhibition of PIK3C3 ATP binding site (TEDGGKYPVIFKHGDDLR) in human PBMC at 1 uM
[5] = target: Ribosomal protein S6 kinase alpha-1 (Homo sapiens) (UniProt Q15418); test: Inhibition of RSK1 domain2 conserved Lys2 (DLKPSNILYVDESGNPECLR) in human PBMC at 0.1 uM
[6] = target: T1, STE20-related kinase adapter protein alpha (Homo sapiens) (UniProt Q7RTN6); test: Inhibition of STLK5 activation loop (YSVKVLPWLSPEVLQQNLQGYDAK) in human PBMC at 0.1 uM
T1 sequence (whole entry): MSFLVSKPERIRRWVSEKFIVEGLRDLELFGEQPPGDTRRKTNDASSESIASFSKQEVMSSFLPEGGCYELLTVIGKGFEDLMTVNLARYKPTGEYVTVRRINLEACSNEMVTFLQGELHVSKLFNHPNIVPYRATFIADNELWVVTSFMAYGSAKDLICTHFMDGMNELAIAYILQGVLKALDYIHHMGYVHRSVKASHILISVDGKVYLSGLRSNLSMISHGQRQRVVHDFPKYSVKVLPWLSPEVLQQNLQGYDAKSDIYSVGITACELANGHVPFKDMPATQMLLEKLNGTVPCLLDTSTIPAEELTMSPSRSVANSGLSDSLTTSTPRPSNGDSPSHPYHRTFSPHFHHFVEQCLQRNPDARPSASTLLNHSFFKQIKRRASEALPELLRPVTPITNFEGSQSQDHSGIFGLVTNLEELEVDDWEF

[7] = Ratio of unbound drug level in mouse brain to plasma at 10 mg/kg, po; format: ADME, organism-based; conditions: read-out: K(p,uu,brain)
[8] = target: Serine/threonine-protein kinase Nek6 (Homo sapiens) (UniProt Q9HC98); test: Inhibition of NEK6 conserved Lys2 (DIKPANVFITATGVVK) in human PBMC at 0.1 uM
[9] = target: Cyclin-dependent kinase 17 (Homo sapiens) (UniProt Q00537); test: Inhibition of PCTAIRE2 conserved Lys2 (DLKPQNLLINEK) in human PBMC at 0.1 uM
[10] = target: Calcium/calmodulin-dependent protein kinase type 1D (Homo sapiens) (UniProt Q8IU85); test: Inhibition of CaMK1d labeling at conserved Lys2 (DLKPENLLYYSQDEESK) in human PBMC at 1 uM
[11] = target: Serine/threonine-protein kinase Nek7 (Homo sapiens) (UniProt Q8TDX7); test: Inhibition of NEK7 conserved Lys1 (AACLLDGVPVALKK) in human PBMC at 0.1 uM
[12] = target: Proto-oncogene tyrosine-protein kinase Src (Homo sapiens) (UniProt P12931); test: Inhibition of SRC ATP binding site (QGAKFPIKWTAPEAALYGR) in human PBMC at 1 uM
[13] = target: T2, Mitogen-activated protein kinase kinase kinase 6 (Homo sapiens) (UniProt O95382); test: Inhibition of MAP3K6 conserved Lys2 (DIKGDNVLINTFSGLLK) in human PBMC at 0.1 uM
T2 sequence (whole entry): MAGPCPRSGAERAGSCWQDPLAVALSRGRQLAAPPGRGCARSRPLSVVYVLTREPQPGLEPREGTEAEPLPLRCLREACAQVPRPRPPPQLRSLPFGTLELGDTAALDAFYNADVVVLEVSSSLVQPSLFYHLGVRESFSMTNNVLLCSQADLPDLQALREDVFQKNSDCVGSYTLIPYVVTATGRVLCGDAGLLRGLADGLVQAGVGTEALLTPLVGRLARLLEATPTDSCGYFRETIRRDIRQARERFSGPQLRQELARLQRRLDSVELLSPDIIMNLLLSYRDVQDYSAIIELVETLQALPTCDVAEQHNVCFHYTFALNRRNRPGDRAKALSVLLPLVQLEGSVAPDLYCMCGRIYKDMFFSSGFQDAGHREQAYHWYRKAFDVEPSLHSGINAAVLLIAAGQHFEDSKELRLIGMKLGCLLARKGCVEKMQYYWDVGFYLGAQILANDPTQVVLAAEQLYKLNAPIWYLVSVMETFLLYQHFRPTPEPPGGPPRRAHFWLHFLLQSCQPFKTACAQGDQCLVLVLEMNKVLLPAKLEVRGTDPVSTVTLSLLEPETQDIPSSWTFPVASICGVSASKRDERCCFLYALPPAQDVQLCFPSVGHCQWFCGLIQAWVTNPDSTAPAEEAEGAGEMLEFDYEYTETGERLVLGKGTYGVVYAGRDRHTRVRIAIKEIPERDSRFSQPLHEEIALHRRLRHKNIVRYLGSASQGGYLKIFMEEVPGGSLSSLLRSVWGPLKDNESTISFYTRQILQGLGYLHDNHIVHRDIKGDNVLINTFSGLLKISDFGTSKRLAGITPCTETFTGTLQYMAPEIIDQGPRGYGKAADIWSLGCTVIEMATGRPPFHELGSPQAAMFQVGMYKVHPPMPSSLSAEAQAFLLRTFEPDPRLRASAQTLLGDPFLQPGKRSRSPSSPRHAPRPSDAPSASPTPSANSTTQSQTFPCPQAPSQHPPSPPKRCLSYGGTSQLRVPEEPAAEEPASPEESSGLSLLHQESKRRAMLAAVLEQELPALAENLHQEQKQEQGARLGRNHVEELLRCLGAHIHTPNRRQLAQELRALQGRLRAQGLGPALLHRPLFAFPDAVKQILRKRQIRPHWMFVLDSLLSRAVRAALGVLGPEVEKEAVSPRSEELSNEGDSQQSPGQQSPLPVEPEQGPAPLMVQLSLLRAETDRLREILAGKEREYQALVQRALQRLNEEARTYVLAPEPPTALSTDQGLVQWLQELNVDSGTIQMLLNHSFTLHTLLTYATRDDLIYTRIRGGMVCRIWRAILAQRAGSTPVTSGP

[14] = target: Dual specificity mitogen-activated protein kinase kinase 7 (Homo sapiens) (UniProt O14733); test: Inhibition of MAP2K7 conserved Lys2 (DVKPSNILLDER) in human PBMC at 0.1 uM
[15] = target: Serine/threonine-protein kinase 10 (Homo sapiens) (UniProt O94804); test: Inhibition of LOK conserved Lys2 (DLKAGNVLMTLEGDIR) in human PBMC at 0.1 uM
Homo sapiens = organism: Homo sapiens; test: Inhibition of p70S6K conserved Lys2 (DLKPENIMLNHQGHVK) in human PBMC at 1 uM

Serine/threonine-protein kinase Nek6 (Homo sapiens), sequence (Q9HC98 whole entry): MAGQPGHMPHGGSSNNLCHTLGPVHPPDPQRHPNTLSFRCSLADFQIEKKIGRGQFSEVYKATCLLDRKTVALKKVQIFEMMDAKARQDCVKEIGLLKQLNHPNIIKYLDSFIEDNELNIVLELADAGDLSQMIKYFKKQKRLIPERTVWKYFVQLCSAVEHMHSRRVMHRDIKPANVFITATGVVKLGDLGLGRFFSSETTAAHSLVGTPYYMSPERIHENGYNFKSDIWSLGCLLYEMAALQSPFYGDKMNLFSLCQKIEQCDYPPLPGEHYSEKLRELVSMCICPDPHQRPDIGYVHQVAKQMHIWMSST
Proto-oncogene tyrosine-protein kinase Src (Homo sapiens), sequence (P12931 2-536 limits assumed): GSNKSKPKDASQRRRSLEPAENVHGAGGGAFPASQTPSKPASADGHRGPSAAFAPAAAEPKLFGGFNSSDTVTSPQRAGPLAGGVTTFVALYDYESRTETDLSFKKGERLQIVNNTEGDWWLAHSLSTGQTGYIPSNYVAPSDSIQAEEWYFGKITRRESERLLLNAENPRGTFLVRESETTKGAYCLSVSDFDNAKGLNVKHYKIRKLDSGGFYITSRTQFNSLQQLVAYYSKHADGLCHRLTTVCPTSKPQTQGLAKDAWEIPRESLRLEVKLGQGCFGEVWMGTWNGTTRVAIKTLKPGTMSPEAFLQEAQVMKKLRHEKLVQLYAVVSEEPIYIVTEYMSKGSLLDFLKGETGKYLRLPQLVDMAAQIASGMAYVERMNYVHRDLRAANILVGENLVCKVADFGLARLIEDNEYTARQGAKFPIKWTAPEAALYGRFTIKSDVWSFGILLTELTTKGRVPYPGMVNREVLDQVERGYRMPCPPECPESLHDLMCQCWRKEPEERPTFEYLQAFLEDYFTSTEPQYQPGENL
Mitogen-activated protein kinase kinase kinase 15 (Homo sapiens), sequence (Q6ZN16 whole entry): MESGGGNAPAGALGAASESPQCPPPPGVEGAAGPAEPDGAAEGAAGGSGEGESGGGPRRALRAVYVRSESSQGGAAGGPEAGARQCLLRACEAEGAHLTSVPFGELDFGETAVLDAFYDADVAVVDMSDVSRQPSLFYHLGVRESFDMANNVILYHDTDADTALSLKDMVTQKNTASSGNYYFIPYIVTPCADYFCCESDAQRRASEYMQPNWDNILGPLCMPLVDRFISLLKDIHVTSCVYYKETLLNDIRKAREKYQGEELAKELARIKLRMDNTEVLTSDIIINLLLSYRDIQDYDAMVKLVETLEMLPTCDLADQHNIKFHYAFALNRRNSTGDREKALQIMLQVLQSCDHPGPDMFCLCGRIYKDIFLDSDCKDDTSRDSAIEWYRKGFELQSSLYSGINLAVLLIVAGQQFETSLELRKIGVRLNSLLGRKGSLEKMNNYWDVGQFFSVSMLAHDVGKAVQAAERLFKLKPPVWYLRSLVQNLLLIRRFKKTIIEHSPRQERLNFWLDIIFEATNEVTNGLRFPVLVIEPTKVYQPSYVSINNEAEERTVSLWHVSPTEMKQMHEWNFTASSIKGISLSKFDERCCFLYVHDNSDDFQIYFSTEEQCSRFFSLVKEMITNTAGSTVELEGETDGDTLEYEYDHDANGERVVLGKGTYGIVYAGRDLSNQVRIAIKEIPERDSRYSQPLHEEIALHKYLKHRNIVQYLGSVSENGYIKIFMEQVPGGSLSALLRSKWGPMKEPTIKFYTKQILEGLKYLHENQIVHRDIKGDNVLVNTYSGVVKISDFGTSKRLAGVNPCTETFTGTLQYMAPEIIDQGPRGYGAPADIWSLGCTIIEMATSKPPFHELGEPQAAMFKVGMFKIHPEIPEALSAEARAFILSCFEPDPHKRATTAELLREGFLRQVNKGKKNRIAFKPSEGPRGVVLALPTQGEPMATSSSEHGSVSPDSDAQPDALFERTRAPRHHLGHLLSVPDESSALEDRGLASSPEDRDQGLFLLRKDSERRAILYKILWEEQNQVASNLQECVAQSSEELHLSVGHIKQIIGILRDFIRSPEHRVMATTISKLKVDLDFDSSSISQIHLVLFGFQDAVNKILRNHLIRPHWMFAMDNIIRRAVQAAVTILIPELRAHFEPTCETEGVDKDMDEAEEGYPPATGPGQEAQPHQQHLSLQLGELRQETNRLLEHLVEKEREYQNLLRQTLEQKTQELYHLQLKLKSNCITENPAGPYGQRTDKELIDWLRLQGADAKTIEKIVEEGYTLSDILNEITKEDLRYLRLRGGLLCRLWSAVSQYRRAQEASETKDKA
Phosphatidylinositol 3-kinase catalytic subunit type 3 (Homo sapiens), sequence (Q8NEB9 whole entry, the tested form may be a part): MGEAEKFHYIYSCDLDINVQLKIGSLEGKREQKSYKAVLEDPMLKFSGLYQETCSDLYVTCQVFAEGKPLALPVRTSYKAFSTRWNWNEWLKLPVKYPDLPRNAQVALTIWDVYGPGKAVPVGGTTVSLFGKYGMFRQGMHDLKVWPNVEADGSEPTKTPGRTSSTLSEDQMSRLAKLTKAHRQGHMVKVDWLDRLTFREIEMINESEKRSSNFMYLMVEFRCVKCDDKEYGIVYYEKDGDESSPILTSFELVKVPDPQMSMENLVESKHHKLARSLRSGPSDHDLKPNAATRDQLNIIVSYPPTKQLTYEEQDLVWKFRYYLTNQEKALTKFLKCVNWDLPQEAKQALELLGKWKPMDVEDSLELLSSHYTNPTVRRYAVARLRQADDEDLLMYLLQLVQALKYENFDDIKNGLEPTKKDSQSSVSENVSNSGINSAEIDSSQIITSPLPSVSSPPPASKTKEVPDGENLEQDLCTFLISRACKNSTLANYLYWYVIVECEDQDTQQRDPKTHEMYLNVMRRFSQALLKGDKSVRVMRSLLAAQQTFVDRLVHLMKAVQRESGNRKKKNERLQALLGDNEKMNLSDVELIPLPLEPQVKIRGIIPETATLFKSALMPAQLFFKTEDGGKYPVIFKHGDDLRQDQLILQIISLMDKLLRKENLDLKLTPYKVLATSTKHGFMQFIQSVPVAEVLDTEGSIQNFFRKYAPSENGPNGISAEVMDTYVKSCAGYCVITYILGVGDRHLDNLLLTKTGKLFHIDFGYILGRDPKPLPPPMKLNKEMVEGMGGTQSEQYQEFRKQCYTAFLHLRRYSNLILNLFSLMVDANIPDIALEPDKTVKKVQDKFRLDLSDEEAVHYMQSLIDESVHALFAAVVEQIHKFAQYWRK
Ribosomal protein S6 kinase alpha-1 (Homo sapiens), sequence (Q15418 whole entry, the tested form may be a part): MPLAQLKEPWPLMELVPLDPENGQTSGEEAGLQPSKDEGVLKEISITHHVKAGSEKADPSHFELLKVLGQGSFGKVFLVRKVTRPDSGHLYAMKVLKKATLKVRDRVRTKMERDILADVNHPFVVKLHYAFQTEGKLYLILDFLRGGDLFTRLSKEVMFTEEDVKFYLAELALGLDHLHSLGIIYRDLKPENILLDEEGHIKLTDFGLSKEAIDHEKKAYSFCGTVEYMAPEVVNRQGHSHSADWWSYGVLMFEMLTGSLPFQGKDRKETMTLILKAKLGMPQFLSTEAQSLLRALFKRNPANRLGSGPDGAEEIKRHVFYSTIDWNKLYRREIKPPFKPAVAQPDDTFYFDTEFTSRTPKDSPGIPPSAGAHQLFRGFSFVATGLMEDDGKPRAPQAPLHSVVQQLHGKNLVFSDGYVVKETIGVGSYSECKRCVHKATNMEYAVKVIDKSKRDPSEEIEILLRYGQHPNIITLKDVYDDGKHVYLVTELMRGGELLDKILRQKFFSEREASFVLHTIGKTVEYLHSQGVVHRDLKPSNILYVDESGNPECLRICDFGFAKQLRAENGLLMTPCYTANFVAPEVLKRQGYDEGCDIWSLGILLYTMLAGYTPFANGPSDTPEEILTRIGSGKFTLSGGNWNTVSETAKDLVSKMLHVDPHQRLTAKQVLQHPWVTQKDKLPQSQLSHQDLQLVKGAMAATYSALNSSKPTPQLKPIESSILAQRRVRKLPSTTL
Dual specificity mitogen-activated protein kinase kinase 7 (Homo sapiens), sequence (O14733 whole entry): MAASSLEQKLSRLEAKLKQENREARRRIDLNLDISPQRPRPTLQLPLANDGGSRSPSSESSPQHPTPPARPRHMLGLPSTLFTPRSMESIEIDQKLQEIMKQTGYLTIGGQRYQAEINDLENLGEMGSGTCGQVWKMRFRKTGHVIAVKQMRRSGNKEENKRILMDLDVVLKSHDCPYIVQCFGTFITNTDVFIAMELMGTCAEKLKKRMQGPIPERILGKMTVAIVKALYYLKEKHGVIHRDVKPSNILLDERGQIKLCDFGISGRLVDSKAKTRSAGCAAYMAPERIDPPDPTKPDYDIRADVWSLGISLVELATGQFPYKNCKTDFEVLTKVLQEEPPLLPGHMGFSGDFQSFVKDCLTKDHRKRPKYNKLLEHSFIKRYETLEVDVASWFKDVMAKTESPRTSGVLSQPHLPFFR
Cyclin-dependent kinase 17 (Homo sapiens), sequence (Q00537 whole entry, looked up): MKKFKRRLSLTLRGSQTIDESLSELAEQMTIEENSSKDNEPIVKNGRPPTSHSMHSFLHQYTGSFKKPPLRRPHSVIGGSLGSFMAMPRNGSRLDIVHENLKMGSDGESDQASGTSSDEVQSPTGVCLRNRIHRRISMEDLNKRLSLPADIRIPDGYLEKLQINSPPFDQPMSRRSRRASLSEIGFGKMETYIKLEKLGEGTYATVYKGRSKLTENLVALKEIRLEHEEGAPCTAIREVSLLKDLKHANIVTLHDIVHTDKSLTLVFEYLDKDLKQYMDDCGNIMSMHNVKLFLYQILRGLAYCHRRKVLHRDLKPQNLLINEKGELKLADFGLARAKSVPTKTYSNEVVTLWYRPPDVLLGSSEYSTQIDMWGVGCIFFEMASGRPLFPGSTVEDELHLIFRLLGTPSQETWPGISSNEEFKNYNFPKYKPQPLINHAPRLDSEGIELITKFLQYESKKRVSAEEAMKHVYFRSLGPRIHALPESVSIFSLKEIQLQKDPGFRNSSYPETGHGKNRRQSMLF
Serine/threonine-protein kinase Nek7 (Homo sapiens), sequence (Q8TDX7 whole entry, looked up): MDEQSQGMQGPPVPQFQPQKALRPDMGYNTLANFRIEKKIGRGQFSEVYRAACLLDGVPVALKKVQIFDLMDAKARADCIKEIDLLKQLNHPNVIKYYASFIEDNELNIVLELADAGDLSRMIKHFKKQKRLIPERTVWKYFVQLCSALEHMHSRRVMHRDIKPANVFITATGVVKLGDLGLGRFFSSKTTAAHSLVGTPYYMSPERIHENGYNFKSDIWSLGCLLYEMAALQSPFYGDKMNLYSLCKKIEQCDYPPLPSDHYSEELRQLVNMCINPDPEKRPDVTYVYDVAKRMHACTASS

CC(C)n1cc(-c2cc(-c3ccc(CN4CCOCC4)cc3)cnc2N)nn1
inhibition [1]: -0.5% | CLint scaled [2]: 157 mL/min/kg | inhibition [3]: -7.8% | inhibition [4]: 2.8% | inhibition [5]: 8.3% | inhibition [6]: -9.8% | Kp uu [7]: 0.76 | inhibition [8]: -4.8% | inhibition [9]: 21.7% | inhibition [10]: -0.9% | inhibition [11]: 7.6% | inhibition [12]: -2.3% | inhibition [13]: -0.5% | inhibition [14]: 31.6% | inhibition [15]: 13.8% | inhibition (Homo sapiens): 6.9%
